Literature values as cited in US8541386B2, “Cannabinoid 2 (CB2) receptor gene promoter and unique RNA transcripts in B cells and methods of use” (University of South Florida, priority 2009, dated 2013).

System: IL-4/anti-CD40 stimulated B cells
Settings: co-treatment of IL-4/anti-CD40 stimulated B cells; earlier work of the inventors' lab

## CCCCCCC(C)(C)c1ccc([C@@H]2C[C@H](O)CC[C@H]2CCCO)c(O)c1 [CP55940]
  immunoglobulin class switching to IgE: increased immunoglobulin class switching to IgE
